Reference: paper PMC11413503, “SCR‐7952, a highly selective MAT2A inhibitor, demonstrates synergistic antitumor activities in combination with the S‐adenosylmethionine‐competitive or the methylthioadenosine‐cooperative protein arginine methyltransferase 5 inhibitors in methylthioadenosine phosphorylase‐deleted tumors” (MedComm, 2024)

Experiments:
[1] = Plasma bilirubin in mice after oral treatment; assay type: in vivo; conditions: SCR-7952 1.0 mg/kg, 14 days oral treatment, 2 h after final dose
COX2 = COX2 (Homo sapiens, UniProt P35354); test: Mini-profiling panel, non-kinase enzyme; assay type: biochemical; conditions: Non-Kinase Enzymes; read-out: COX2 Inhibitor IC50
[2] = test system: SAM levels in HCT116 MTAP−/− xenograft tumors and mice plasma; test: In vivo SAM measurement in tumors and plasma; conditions: 2 or 4 h post the final dose, low group, 16 days
Experimental: The concentration of SAM in plasma and tissue samples was determined using a UPLC–MS/MS method. For plasma samples, an aliquot of 20 µL plasma sample was added with 400 µL extraction buffer (1 M acetic acid in MeOH), then vortexed and centrifuged at 16,000 g for 5 min. The supernatant was treated as the homogenized tissue sample, and the sample dilution factor was 21. For tumor samples, the tumor tissues were homogenized with 9 volumes (v/w) of extraction buffer, then vortexed and centrifuged at 16,000 g for 5 min. The supernatant was treated as the homogenized tissue sample. An aliquot of 30 µL tissue sample was added with 600 µL extraction buffer, then vortexed and centrifuged at 16,000 g for 5 min. The total sample dilution factor is 210. An aliquot of 60 µL diluted samples, standards, or QCs was added with 400 µL extraction buffer with IS (SAM‐d 3, 50 ng/mL in extraction buffer). The mixture was vortexed at 250 g for 10 min and centrifuged at 16,000 g for 5 min. An aliquot of 4 µL supernatant was injected for UPLC–MS/MS analysis. The standard calibration curve was in a 1.0–300 ng/mL concentration range. UPLC–MS/MS method for SAM detection was performed as mentioned before.

LCK = LCK (Homo sapiens, UniProt P06239); test: Mini-profiling panel, kinase; assay type: biochemical; conditions: Kinases; read-out: LCK Inhibitor IC50
SDMA = test: Tumor SDMA levels in combination xenograft study; assay type: in vivo, mice; conditions: SCR-7952 0.3 mg/kg alone

LCK, sequence (P06239 whole entry, species assumed): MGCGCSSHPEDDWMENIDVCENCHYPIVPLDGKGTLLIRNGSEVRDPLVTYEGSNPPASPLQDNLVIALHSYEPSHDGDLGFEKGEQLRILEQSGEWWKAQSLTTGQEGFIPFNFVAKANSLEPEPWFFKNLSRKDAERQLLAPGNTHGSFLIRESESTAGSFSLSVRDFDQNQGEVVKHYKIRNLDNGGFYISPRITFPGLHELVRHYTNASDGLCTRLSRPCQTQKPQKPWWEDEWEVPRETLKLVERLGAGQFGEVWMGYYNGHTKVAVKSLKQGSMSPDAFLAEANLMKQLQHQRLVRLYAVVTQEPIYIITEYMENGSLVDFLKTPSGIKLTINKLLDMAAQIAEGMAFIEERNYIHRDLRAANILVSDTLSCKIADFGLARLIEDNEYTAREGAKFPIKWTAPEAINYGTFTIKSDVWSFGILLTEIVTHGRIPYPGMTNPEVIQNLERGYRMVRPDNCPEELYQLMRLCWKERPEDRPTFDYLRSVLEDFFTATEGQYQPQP
COX2, sequence (P35354 18-604): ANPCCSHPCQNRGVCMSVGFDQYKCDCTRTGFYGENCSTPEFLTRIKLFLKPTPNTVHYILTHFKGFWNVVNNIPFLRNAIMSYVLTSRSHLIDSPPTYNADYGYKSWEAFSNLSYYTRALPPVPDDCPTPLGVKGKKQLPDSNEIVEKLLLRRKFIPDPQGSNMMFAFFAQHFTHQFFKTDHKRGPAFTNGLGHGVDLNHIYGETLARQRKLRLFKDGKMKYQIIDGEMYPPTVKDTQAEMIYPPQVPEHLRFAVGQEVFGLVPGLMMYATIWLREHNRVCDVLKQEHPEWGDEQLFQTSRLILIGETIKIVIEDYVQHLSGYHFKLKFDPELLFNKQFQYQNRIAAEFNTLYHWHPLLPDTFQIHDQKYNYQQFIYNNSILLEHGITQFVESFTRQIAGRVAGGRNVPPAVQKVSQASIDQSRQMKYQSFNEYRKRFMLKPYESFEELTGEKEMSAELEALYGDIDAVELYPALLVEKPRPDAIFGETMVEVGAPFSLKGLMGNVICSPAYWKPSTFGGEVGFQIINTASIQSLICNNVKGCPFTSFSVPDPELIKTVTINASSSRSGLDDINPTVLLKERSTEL

In the case of `Cn1cnc2c(=O)n(-c3cccnc3C3CC3)c3cc(Cl)ccc3c21` [SCR‐7952, 7‐chloro‐5‐(2‐cyclopropylpyridin‐3‐yl)‐1‐methyl‐1,5‐dihydro‐4H‐imidazo[4,5‐c]quinolin‐4‐one], the “effect on mice plasma levels of bilirubin” value [1] is reported as “no significant effect”, the IC50 (COX2) is reported as over 10 µM and the “inhibition of SAM levels in tumors and plasma” value [2] is reported as 53.56–68.72%. For the same compound, the IC50 (LCK) was over 10 µM and the “tumor SDMA levels” value (SDMA) was “remarkable reduction”.
